Experimental data from ChEMBL document CHEMBL5329165, “Design, synthesis and biological evaluation of phenanthridine amide and 1,2,3-triazole analogues against Mycobacterium tuberculosis” (RSC Med Chem, 2023).
≈ marks a conversion by molar mass, not a printed value.

Tested on: Mycobacterium tuberculosis
Test: Antimycobacterial activity against Mycobacterium tuberculosis H37Ra transformed with pSMT1 luciferase reporter plasmid incubated for 7 days by luminometric assay
Assay type: functional
Settings: 168 h, time 7 day

O=C(Nc1ccc(N2CCN(C(=O)c3cnccn3)CC2)nc1)c1ccccc1
MIC: 1.46 µM (≈ 0.567 µg/mL)
